# Source: paper PMC4595804, “A strategy to discover decoy chemokine ligands with an anti-inflammatory activity” (Scientific Reports, 2015)
# T1: CCL17 (Homo sapiens, UniProt Q92583)
# T1 construct: codes for the mature CCL17 or CCL22 with an N-terminal thioredoxin-hexahistidin (TRX- (His)6) tag; thioredoxin (TRX) (N, cleaved yes); (His)6 (N, cleaved yes); made in house; host or cells: E. coli BL21 (DE3)
# T1 sequence (Q92583 24-94): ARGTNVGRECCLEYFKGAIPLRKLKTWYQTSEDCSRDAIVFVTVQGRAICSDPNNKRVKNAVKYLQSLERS
# T2: CCR4 (Homo sapiens, UniProt P51679)
# T2 construct: signal peptide fused to EGFP (N); expressed in transfected cells; host or cells: HEK-293
# T2 sequence (P51679 1-360): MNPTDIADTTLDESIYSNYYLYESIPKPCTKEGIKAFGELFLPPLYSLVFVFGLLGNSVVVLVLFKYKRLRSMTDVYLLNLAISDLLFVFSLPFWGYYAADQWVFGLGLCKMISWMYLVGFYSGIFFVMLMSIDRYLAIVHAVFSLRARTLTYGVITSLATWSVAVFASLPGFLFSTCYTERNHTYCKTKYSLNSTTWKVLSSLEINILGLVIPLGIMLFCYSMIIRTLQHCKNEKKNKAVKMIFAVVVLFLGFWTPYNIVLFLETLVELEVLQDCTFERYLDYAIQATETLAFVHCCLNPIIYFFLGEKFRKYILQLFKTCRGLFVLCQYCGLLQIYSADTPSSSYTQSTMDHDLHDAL
# T3: CCL22 (Homo sapiens, UniProt O00626)
# T3 construct: codes for the mature CCL17 or CCL22 with an N-terminal thioredoxin-hexahistidin (TRX- (His)6) tag; thioredoxin (TRX) (N, cleaved yes); (His)6 (N, cleaved yes); made in house; host or cells: E. coli BL21 (DE3)
# T3 sequence (O00626 25-93): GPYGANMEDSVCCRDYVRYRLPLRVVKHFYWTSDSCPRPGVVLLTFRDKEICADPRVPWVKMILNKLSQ
# B1: CCL17: recombinant human chemokine (Thymus and Activation-Regulated Chemokine), CCR4 agonist, produced in E. coli (protein)
# chain: T1 sequence (Q92583 24-94)
# modifications: left off: thioredoxin (TRX), N-terminal, cleaved | His6, N-terminal, cleaved
# B2: CCL22: recombinant human chemokine (Macrophage-Derived Chemokine), CCR4 agonist, produced in E. coli (protein)
# chain: T3 sequence (O00626 25-93)
# modifications: left off: thioredoxin (TRX), N-terminal, cleaved | His6, N-terminal, cleaved
# notes: recombinant human chemokine (Macrophage-Derived Chemokine), CCR4 agonist, produced in E. coli
# Experiments:
# CXCR4 = CXCR4 (Homo sapiens, UniProt P61073); conditions: EGFP-CXCR4+ HEK cells, 1 h preincubation
# Procedure: The identification of neutraligands relies on the measurement of kinetic-based calcium responses.
# Monitoring calcium responses in a time-resolved manner allows the discrimination of compounds binding to the chemokine from those binding to the receptor. This is achieved using a pre-incubation protocol in which the tested compounds are preincubated with the receptor or with the chemokine prior to calcium monitoring. […] These incubation protocols are named Time-Resolved Intracellular Calcium recordings (TRIC-r) allowing the identification of neutraligands versus receptor antagonists.
# CCL17 [1] = target: T1, CCL17; assay: TRIC-r calcium assay, neutraligand protocol: compound preincubated with CCL17, EGFP-CCR4+Gqi5+ HEK cells; type: cell-based; conditions: neutraligand protocol, control compound
# Procedure: EGFP-CCR4^+Gqi5^+HEKcells were loaded with fluorescent Ca^2+-indicator Indo-1 AM (5μM, Interchim) for 45 min at 37 °C. […] Cells (100,000 cells/well, 100μl) were seeded in black clear bottom 96-well plates (Greiner), and centrifuged at 250 × g for 5 min.
# (§1) Two plates (96-well plates, Greiner) were prepared for the screen: one containing test compounds alone in order to determine their direct agonistic activity, and another one containing test compounds mixed with CCL17 or CCL22 at room temperature for 1 h (neutraligand protocol). The chemokines and test compounds were prepared at a 3× concentration, while digitonin was prepared at a 4× concentration. The CCR4 antagonist, C-021 served as control in the experiment. In the antagonist protocol, compounds were added to the cell plate (one compound per well) and incubated with cells for 30 min at room temperature, while the agonist (CCL17 or CCL22) was added to the ligand plate only.
# Dye loaded cells were placed in the FlexStation 3 (Molecular Devices). […] For the primary screening, the ligands (50μl of chemokine mixed with DMSO or test compounds) were added to the cells at 40 s, followed by digitonin addition (50μl) at 100 s to the cells. Molecules were screened at a final concentration of 2μg/ml with 5 nM CCL17 or CCL22. […] The calcium response values (height of peak response over baseline) were determined. Hits were selected by comparing the response amplitude at the time of the chemokine addition ± test compound. The Z’ factor[29] was calculated according to the following equation: Z’ = 1-(3SD+ + 3SD−)/|Ave+ − Ave−|, where SD+ and Ave+ are respectively the standard deviation and the mean value of the positive controls (chemokine + DMSO), while SD− and Ave− are respectively the standard deviation and the mean value of the negative controls (HEPES-BSA (0.1%) mixed with DMSO, or cells mixed with C-021). Hit molecules were confirmed by performing concentration-response curves and their half maximal inhibitory concentration (IC50) values were calculated using the Kaleidagraph software.
# CCR4 [2] = target: T2, CCR4; assay: TRIC-r calcium assay, antagonist protocol: compound preincubated with CCR4-expressing cells; type: cell-based; conditions: primary screen
# Procedure: as §1
# Dye loaded cells were placed in the FlexStation 3 (Molecular Devices). Calcium mobilization was measured at 401 and 475 nm emission fluorescence after excitation at 355 nm. For the primary screening, the ligands (50μl of chemokine mixed with DMSO or test compounds) were added to the cells at 40 s, followed by digitonin addition (50μl) at 100 s to the cells. […] Raw fluorescence data (at 401 and 475 nm) were exported and the ratio 401/475 was calculated. The calcium response values (height of peak response over baseline) were determined. […] Hit molecules were confirmed by performing concentration-response curves and their half maximal inhibitory concentration (IC50) values were calculated using the Kaleidagraph software.
# CCL17 [3] = target: T1, CCL17; assay: Tryptophan fluorescence assay on CCL17; type: binding; conditions: 0–25 μM compound
# Procedure: (§2) Fluorescence measurements were performed on a spectrofluorometer (JobinYvon/Spex) in a quartz microcuvette at 20 °C. CCL17 and CCL22 (1.5 μM in HEPES buffer without BSA) were excited at 285 nm and emission spectra were recorded (300–400 nm). […] The fluorescence emission spectra were corrected by subtracting the emission scan of the compounds alone and data analysis was carried out with fluorescence intensities detected at 340 nm.
# CCL22 = target: T3, CCL22; assay: Tryptophan fluorescence assay on CCL22; type: binding; conditions: 0–25 μM compound
# Procedure: as §2, with “°C.” for “°C. CCL17 and CCL22 (1.5 μM in HEPES buffer without BSA) were excited at 285 nm and emission spectra were recorded (300–400 nm).”
# CCR4+ HUT78 cells = assay: HUT78 chemotaxis: compounds alone or preincubated with the cells (antagonist protocol); type: cell-based, human; conditions: receptor antagonist protocol, 1 μM, 3 nM CCL17 or CCL22
# Procedure: Cell migration was carried out in RPMI1640-BSA (0.1%) using Transwell 96-well plates (Corning Costar, 5 μm pore size, polycarbonate membranes). […] Lower wells contained the same medium diluted with DMSO or chemokine (3 nM CCL17 or CCL22).
# 0.1% BSA using Transwell 96-well plates (Corning Costar, 5µm pore size, polycarbonate […]
# the same medium diluted with DMSO or chemokine (3nM CCL17 or CCL22). In neutraligand inhibition studies, prior to their use, CCL17 (a) and CCL22 (b) were pre-incubated with […]
# in the lower compartment. For characterization of the antagonist properties, the compounds were pre-incubated with the cells in the upper compartment. C-021 (1µM, stripped bars), the CCR4 receptor antagonist, was used as a control in both incubation protocols. Results are expressed as the percentage of cells that migrated to the lower chamber. Data represent the means±SD. Experiments were performed in triplicate.
# (1 picture or pasted object on this page, not shown here)
# CCR4 [4] = target: T2, CCR4; assay: EGFP-CCR4 receptor surface level / endocytosis on EGFP-CCR4+ HEK cells; type: cell-based; conditions: 100 nM chemokine, 30 min, EGFP-CCR4+ HEK cells
# Procedure: CCR4 levels were evaluated by flow cytometry (FACSCalibur, BD biosciences) using cell surface labeling of EGFP with monoclonal mouse anti-GFP (Roche Applied Science; 1:100 dilution) as primary antibody and R-phycoerythrin conjugated AffiniPure F (ab’)2 fragment goat anti-mouse (Immunotech; 1/100) as secondary antibody.
# CCR4 [5] = target: T2, CCR4; assay: Dose-response of chemokine-induced calcium responses in EGFP-CCR4+Gqi5+ HEK cells; type: cell-based; conditions: recombinant chemokine, + Gqi5, 21 °C
# Procedure: EGFP-CCR4^+Gqi5^+HEKcells were loaded with fluorescent Ca^2+-indicator Indo-1 AM (5μM, Interchim) for 45 min at 37 °C. The cells were detached in PBS-EDTA (5 mM) for 2 min, suspended in growth medium, pelleted by centrifugation at 320 × g for 5 min, and resuspended in HEPES-BSA buffer (137.5 mM NaCl, 6 mM KCl, 1.25 mM CaCl2, 1.25 mM MgCl2, 0.4 mM NaH2PO4, 5.6 mM glucose, 10 mM HEPES, BSA (0.1%, w/v), pH 7.4). Cells (100,000 cells/well, 100μl) were seeded in black clear bottom 96-well plates (Greiner), and centrifuged at 250 × g for 5 min.
# Dye loaded cells were placed in the FlexStation 3 (Molecular Devices). Calcium mobilization was measured at 401 and 475 nm emission fluorescence after excitation at 355 nm. […] Raw fluorescence data (at 401 and 475 nm) were exported and the ratio 401/475 was calculated. The calcium response values (height of peak response over baseline) were determined. […] The Z’ factor[29] was calculated according to the following equation: Z’ = 1-(3SD+ + 3SD−)/|Ave+ − Ave−|, where SD+ and Ave+ are respectively the standard deviation and the mean value of the positive controls (chemokine + DMSO), while SD− and Ave− are respectively the standard deviation and the mean value of the negative controls (HEPES-BSA (0.1%) mixed with DMSO, or cells mixed with C-021). […]
# Chain of CXCR4 (P61073 whole entry): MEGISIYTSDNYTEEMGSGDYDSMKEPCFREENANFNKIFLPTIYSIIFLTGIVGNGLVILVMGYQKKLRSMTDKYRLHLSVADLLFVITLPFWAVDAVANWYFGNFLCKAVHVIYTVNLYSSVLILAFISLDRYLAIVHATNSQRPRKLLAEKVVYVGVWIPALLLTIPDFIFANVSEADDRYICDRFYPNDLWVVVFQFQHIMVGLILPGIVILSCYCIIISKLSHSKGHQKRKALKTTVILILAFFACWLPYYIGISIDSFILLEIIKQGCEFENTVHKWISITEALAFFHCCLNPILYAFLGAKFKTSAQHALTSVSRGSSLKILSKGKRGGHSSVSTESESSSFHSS
molecule,measurement,setting,value
c1cc(CN2CCCNCCNCCCNCC2)ccc1CN1CCCNCCNCCCNCC1 [AMD3100],"amplitude of CXCL12 calcium responses, preincubation with the chemokine compared with preincubation with the receptor",CXCR4,much greater
"COc1cc2nc(N3CCC(N4CCCCC4)CC3)nc(NC3CCCCCC3)c2cc1OC [C-021, reference compound]",effect on CCL17 calcium responses after preincubation with the chemokine,CCL17 [1],not with the chemokine
same,effect on the response to CCL17 or CCL22 after preincubation with the receptor-expressing cells,CCR4 [2],abolished responses
same,change in tryptophan fluorescence of CCL17,CCL17 [3],No significant change
same,change in tryptophan fluorescence of CCL22,CCL22,No significant change
same,"inhibition of CCR4+ HUT78 T cell migration, compound preincubated with the cells",CCR4+ HUT78 cells,90%
B1,CCR4 internalization (receptor endocytosis) induced by the chemokine,CCR4 [4],approximately 43.0 ± 3.0%
same,EC50,CCR4 [5],3.7 ± 0.4 nM
B2,CCR4 internalization (receptor endocytosis) induced by the chemokine,CCR4 [4],78.0 ± 3.0%
same,EC50,CCR4 [5],2.9 ± 0.5 nM
